Data on 9 compounds can be found in PubChem BioAssay (NCI).

Assay in all cases: NCI-60 cell line screen, 48 h
Test [1] has as its system 786-0 renal.
The subject of test [2] is A549 NSCLC.
The test system of test [3] is COLO 205 colon.
Test [4] concerns DU-145 prostate.
Test [5] has as its system HOP-62 NSCLC.
Test [6] concerns HS 578T breast.
The subject of test [7] is K-562 leukemia.
Test [8] concerns OVCAR-5 ovarian.
Test [9] concerns OVCAR-8 ovarian.
Test [10] relates to RXF 393 renal.
Test [11] relates to SF-268 CNS.
The test system of test [12] is SK-OV-3 ovarian.
Test [13] deals with SNB-19 CNS.
For test [14], the system named is SNB-75 CNS.
Test [15] concerns UO-31 renal.
Test [16] relates to SF-539 CNS.
In test [17] the test system is SN12C renal.
For test [18], the system named is NCI-H226 lung.

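Where inhibition never reached the appropriate level, the endpoint shown equals the highest concentration tested. Otherwise, values were interpolated linearly from a five-concentration, 48-hour dose response in 96-well plates. TGI: concentration producing complete growth inhibition.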

For the compound `COC(=O)C1C/C(=C/N(C)C)C(=S)N1` (centres undefined), the TGI in [1], in test [2], in test [3], in [4], in test [5] and in [6] was > 100 µM throughout. The TGI in test [7], in test [8], in test [9], in [10], in test [11] and in [12] was > 100 µM each time. For the same compound, the TGI in test [13], in test [14] and in [15] was > 100 µM each time.

Turning to `CCSc1sc(=Nc2ccc(N=c3sc(C)c(SC)s3)cc2)sc1-c1ccc(C)cc1`, the TGI in test [1], in test [2], in test [3], in [4], in [5] and in [6] was > 100 µM in each case. Further, the TGI in [7], in test [8], in [9], in test [10], in [11] and in test [16] was > 100 µM in each case. For the same compound, the TGI in [12], in [17], in [13], in test [14] and in test [15] was > 100 µM each time.

As for `CCOC(=O)c1cc(-c2cc(OC)c(OC)c([N+](=O)[O-])c2)c([N+](=O)[O-])n1C`, the TGI in [1], in test [2], in [6], in [7], in test [18] and in test [8] was > 10 µM throughout. Further, the TGI in [9], in [10], in test [11], in test [16], in test [17] and in test [13] was > 10 µM throughout. Further, the TGI in test [14] and in test [15] was > 10 µM in each case.

Take `CCCN1C(=O)CC(C)N(Cc2ccccc2Cl)C1=S` (centres undefined): the TGI in test [1] is > 100 µM; in [2], > 100 µM; in test [3] it was 32.9 µM; in test [4], > 100 µM; in test [5], > 100 µM; in test [6], > 100 µM. Further, the TGI in test [8] was > 100 µM; in test [9], 72.1 µM; in test [10] it was 21.9 µM; in [11], 86.5 µM; in test [16], 36 µM; in test [12], > 100 µM. Besides, the TGI in test [17] was 94.8 µM; in test [13] it was > 100 µM.

As for `CCC12CCCN(Cc3ccccc3)C1c1c([nH]c3ccccc13)C(C(=O)OC)C2` (centres undefined), the TGI in test [1], in test [2], in test [3], in [4], in [5] and in test [6] was > 10 µM each time. The TGI in [7], in test [8], in test [9], in test [11], in test [16] and in test [12] was > 10 µM in each case. In addition, the TGI in test [17], in test [13] and in test [14] was > 10 µM each time.

For the compound `O=S(=O)(O)c1cc(O)c2c(N=Cc3ccccc3O)cc(S(=O)(=O)O)cc2c1`, the TGI in [1], in [2], in [3], in test [4], in [5] and in test [7] was > 100 µM throughout. The TGI in test [18], in test [8], in test [9], in test [10], in test [11] and in test [16] was > 100 µM each time. The TGI in test [12], in test [17], in test [13], in test [14] and in [15] was > 100 µM each time.

As for `C1CCC2(CC1)O[C@@H]1[C@@H](O2)[C@@H](O[C@H]2O[C@@H]3COC4(CCCCC4)O[C@H]3[C@@H]3OC4(CCCCC4)O[C@@H]23)O[C@@H]2COC3(CCCCC3)O[C@@H]12`, the TGI in test [1], in test [2], in [3], in test [4], in test [5] and in test [6] was > 100 µM in each case. For the same compound, the TGI in [7], in [8], in [9], in test [10], in [11] and in [16] was > 100 µM each time. Also, the TGI in test [12], in test [17], in test [13], in [14] and in [15] was > 100 µM throughout.

As to `COc1cc(C2c3cc4c(cc3[C@@H](Nc3ccccc3)C3COC[C@H]23)OCO4)cc(OC)c1O` (some centres undefined), the TGI is 2.3 µM in test [1]; 14 µM in test [2]; 70.7 µM in test [3]; > 100 µM in test [5]; 12.4 µM in [6]; 9.83 µM in test [8]. Moreover, the TGI in [9] is > 100 µM; in test [11], > 100 µM; in test [16], 4.35 µM; in test [12], > 100 µM; in test [17], 54.3 µM; in test [13], > 100 µM. The TGI was determined as 11.9 µM in test [14] and 3.71 µM in test [15].

For the compound `CCC(CON(C)c1ccccc1)(SC)SC`, the TGI in test [1], in test [2], in test [3], in test [4], in test [5] and in test [6] was > 100 µM in each case. In addition, the TGI in test [18], in [8], in test [9], in test [11], in [16] and in test [12] was > 100 µM in each case. For the same compound, the TGI in test [17], in [13], in [14] and in [15] was > 100 µM throughout.
